Assay results: ChEMBL document CHEMBL1201862, “PubChem BioAssay data set” (2004)
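Compound exposure: 48 hours, 5 concentrations, 96-well plates. GI50: concentration for 50% inhibition of growth.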 The source made the active and inactive calls. No stated cut-off is given here; in the data, active = GI50 up to about 1.1 µM and inactive = higher.

Columns and labels:
Experiment in all cases: growth of human tumour cells (NCI), 48 h
[1] = system: RPMI-8226
[2] = system: SF-295
[3] = system: ACHN
[4] = system: K562
[5] = system: UO-31
[6] = system: 786-0
[7] = system: UACC-257
[8] = system: UACC-62
[9] = system: MOLT-4
[10] = system: SF-268
[11] = system: HCT-15
[12] = system: SK-OV-3
[13] = system: SF-539
[14] = system: HOP-92
[15] = system: RXF 393
[16] = system: CAKI-1

SMILES	GI50 [1]	GI50 [2]	GI50 [3]	GI50 [4]	GI50 [5]	GI50 [6]	GI50 [7]	GI50 [8]	GI50 [9]	GI50 [10]	GI50 [11] [µM]	GI50 [12]	GI50 [13]	GI50 [14]	GI50 [15]	GI50 [16]
N#Cc1c(-c2ccco2)cc(-c2ccccc2)nc1O	> 100 µM (inactive)	> 100 µM (inactive)	> 100 µM (inactive)	> 100 µM (inactive)	> 100 µM (inactive)	> 100 µM (inactive)	> 100 µM (inactive)	> 100 µM (inactive)	> 100 µM (inactive)	> 100 µM (inactive)	> 100	> 100 µM (inactive)	> 100 µM (inactive)	> 100 µM (inactive)	> 100 µM (inactive)	–
CN/N=C(\C)C(CN1CCCCC1)C(C1=C(O)c2ccccc2OC1)c1ccccc1 (configuration not stated)	44.3 µM (inactive)	82 µM (inactive)	> 100 µM (inactive)	> 100 µM (inactive)	50.4 µM (inactive)	> 100 µM (inactive)	> 100 µM (inactive)	48 µM (inactive)	39.4 µM (inactive)	> 100 µM (inactive)	> 100	> 100 µM (inactive)	> 100 µM (inactive)	–	> 100 µM (inactive)	> 100 µM (inactive)
CC1CCP(=O)(c2ccccc2)c2ccccc21 (configuration not stated)	64.3 µM (inactive)	> 100 µM (inactive)	42.5 µM (inactive)	25.1 µM (inactive)	> 100 µM (inactive)	> 100 µM (inactive)	65.9 µM (inactive)	52.8 µM (inactive)	30.8 µM (inactive)	–	38.1	> 100 µM (inactive)	56.1 µM (inactive)	–	> 100 µM (inactive)	–
COC(=O)C1=C(C(=O)OC)SC(=CC#CC=C2SC(C(=O)OC)=C(C(=O)OC)S2)S1	> 100 µM (inactive)	2.82 µM (inactive)	11.8 µM (inactive)	> 87.5 µM (inactive)	3.51 µM (inactive)	5.79 µM (inactive)	> 54.3 µM (inactive)	8.26 µM (inactive)	> 100 µM (inactive)	> 32.4 µM (inactive)	12.6	16.5 µM (inactive)	2.19 µM (inactive)	16.2 µM (inactive)	–	25.5 µM (inactive)
Cc1cc2c(cc1Br)C1(C)CCC(C)C1(C)O2 (configuration not stated)	14 µM (inactive)	17.3 µM (inactive)	31.2 µM (inactive)	17.3 µM (inactive)	32.4 µM (inactive)	23.1 µM (inactive)	30.5 µM (inactive)	44 µM (inactive)	17.9 µM (inactive)	34 µM (inactive)	36.6	53.3 µM (inactive)	> 100 µM (inactive)	20.9 µM (inactive)	15.7 µM (inactive)	56 µM (inactive)
O=C1c2ccoc2C(=O)c2oc(=O)ccc21	3.67 µM (inactive)	17.5 µM (inactive)	2.86 µM (inactive)	6.46 µM (inactive)	7.43 µM (inactive)	16.8 µM (inactive)	7.33 µM (inactive)	17.1 µM (inactive)	–	9.14 µM (inactive)	12	30.1 µM (inactive)	3.45 µM (inactive)	21.6 µM (inactive)	5.86 µM (inactive)	> 45 µM (inactive)
N/N=C1\C(=O)N(CCc2ccccc2)C(=O)C1C(=O)NCCc1ccccc1 (configuration not stated)	> 100 µM (inactive)	> 100 µM (inactive)	> 100 µM (inactive)	> 100 µM (inactive)	> 100 µM (inactive)	> 100 µM (inactive)	> 100 µM (inactive)	> 100 µM (inactive)	> 100 µM (inactive)	> 100 µM (inactive)	–	> 100 µM (inactive)	> 100 µM (inactive)	> 100 µM (inactive)	–	> 100 µM (inactive)
CC(C)OP(=O)(NC(=S)c1ccccc1)OC(C)C	–	> 100 µM (inactive)	> 100 µM (inactive)	> 100 µM (inactive)	> 100 µM (inactive)	> 100 µM (inactive)	> 100 µM (inactive)	71.1 µM (inactive)	80.7 µM (inactive)	> 100 µM (inactive)	> 100	> 100 µM (inactive)	> 100 µM (inactive)	> 100 µM (inactive)	–	> 100 µM (inactive)
CC(C)C(=O)NS(=O)(=O)c1ccccc1	> 100 µM (inactive)	> 100 µM (inactive)	> 100 µM (inactive)	> 100 µM (inactive)	> 100 µM (inactive)	> 100 µM (inactive)	> 100 µM (inactive)	> 100 µM (inactive)	> 100 µM (inactive)	> 100 µM (inactive)	–	> 100 µM (inactive)	> 100 µM (inactive)	> 100 µM (inactive)	> 100 µM (inactive)	> 100 µM (inactive)
N#C/N=C(/NCCc1c[nH]c2ccccc12)Oc1ccccc1	37.7 µM (inactive)	45.8 µM (inactive)	27.4 µM (inactive)	26.8 µM (inactive)	23.4 µM (inactive)	8.57 µM (inactive)	> 100 µM (inactive)	75.3 µM (inactive)	37.1 µM (inactive)	> 100 µM (inactive)	56.8	> 100 µM (inactive)	97.9 µM (inactive)	–	> 100 µM (inactive)	–
COC(=O)c1cc(O)ccc1NC(=O)c1ccc(O)cc1	> 100 µM (inactive)	> 100 µM (inactive)	> 100 µM (inactive)	> 100 µM (inactive)	> 100 µM (inactive)	> 100 µM (inactive)	> 100 µM (inactive)	> 100 µM (inactive)	> 100 µM (inactive)	> 100 µM (inactive)	> 100	> 100 µM (inactive)	> 100 µM (inactive)	87.7 µM (inactive)	–	79.4 µM (inactive)
COc1ccc2c3c(coc13)C(CCC(=O)O)CC2 (configuration not stated)	–	> 100 µM (inactive)	> 100 µM (inactive)	–	–	> 100 µM (inactive)	> 100 µM (inactive)	> 100 µM (inactive)	–	–	> 100	> 100 µM (inactive)	> 100 µM (inactive)	–	> 100 µM (inactive)	38.7 µM (inactive)
CC(C)c1cccc(C(C)C)c1NC(=S)NN=C1C=C(C(C)(C)C)C(=O)C(C(C)(C)C)=C1	27.2 µM (inactive)	31 µM (inactive)	34.4 µM (inactive)	23.3 µM (inactive)	29.6 µM (inactive)	18.9 µM (inactive)	18.9 µM (inactive)	20.3 µM (inactive)	28.7 µM (inactive)	34.3 µM (inactive)	37.3	–	19.9 µM (inactive)	–	16.7 µM (inactive)	–
COc1cc2c(cc1OC)-c1cc3cc(OC)c(OC)cc3n1CC2	71.8 µM (inactive)	13.2 µM (inactive)	31.6 µM (inactive)	26.3 µM (inactive)	> 100 µM (inactive)	23.4 µM (inactive)	56 µM (inactive)	85.5 µM (inactive)	> 100 µM (inactive)	81.5 µM (inactive)	–	30.5 µM (inactive)	–	60.3 µM (inactive)	–	55.7 µM (inactive)
